Measurements: paper PMC3242417 (Bioorganic & medicinal chemistry letters, 2011)
Like-named read-outs stand apart in the source and are kept apart here.

Columns and labels:
HCV replicon = test: microbe, parasite or virus in culture; type: cell-based; settings: for EC50: read-out: Anti-HCV EC50; for EC90: read-out: Anti-HCV EC90
HIV-1 = test: microbe, parasite or virus in culture; type: cell-based; settings: for EC50: read-out: Anti-HIV-1 EC50
wild-type HBV = type: cell-based; settings: in vitro
HepG2 cells = test: Toxicity to HepG2 cells; type: cell-based; settings: data not shown
[1] = test system: four different cell lines
in vitro [2] = settings: human
in vitro [3] = test: in vitro
in vitro [4] = settings: human; remark: listed apart in the source
Huh-7 cells = test: Cellular pharmacology: intracellular metabolites in Huh-7 cells by LC-MS/MS; type: in vitro ADME; settings: 50 μM, 37°C, 4 h
[5] = Human immunodeficiency virus 1, read-out: Anti-HIV-1 EC90

Compound | EC90 (HCV replicon; Hepatitis C virus, Huh-7, 96 h) | EC90 (HIV-1; [5]) | CC50 at 96 h (in vitro [2]) | IC50 (in vitro [3]) | IC50 (in vitro [4]) | further results
4-amino-7-iodo-1-(2-deoxy-2-fluoro-2-C-methyl-α-D-ribofuranosyl)-1H-pyrrolo[2,3-d]pyrimidine [Compound 4e] | – | – | – | – | – | anti-HCV activity (in words) (HCV replicon; HCV replicon): modest anti-HCV activity; EC50 (HCV replicon; HCV replicon, 96 h): 7 µM; EC90 (HCV replicon; HCV replicon, 96 h): 24.9 µM; EC50 (HIV-1): > 100 µM; EC90 (HIV-1; read-out: Anti-HIV-1 EC90): > 100 µM; anti-HBV activity (in words) (wild-type HBV): weak anti-HBV activity; toxicity to HepG2 cells (in words) (HepG2 cells): toxicity to HepG2 cells; IC50 (PBM cells): > 100 µM; IC50 (CEM cells): 40.9 µM; IC50 (VERO cells): 65.9 µM; toxicity (in words) [1]: toxicity
4-amino-7-iodo-1-(2-deoxy-2-fluoro-2-C-methyl-β-D-ribofuranosyl)-1H-pyrrolo[2,3-d]pyrimidine [Compound 5e] | – | – | – | – | – | anti-HCV activity (in words) (HCV replicon; HCV replicon): modest anti-HCV activity; EC50 (HCV replicon; HCV replicon, 96 h): 1.1 µM; EC90 (HCV replicon; HCV replicon, 96 h): > 33 µM; EC50 (HIV-1): 94 µM; EC90 (HIV-1; read-out: Anti-HIV-1 EC90): > 100 µM; IC50 (PBM cells): 53.2 µM; IC50 (CEM cells): 24 µM; IC50 (VERO cells): 21.4 µM; toxicity (in words) [1]: toxicity
C[C@@]1(F)[C@H](O)[C@@H](CO)O[C@@H]1n1ccc2c(N)ncnc21 [Compound 4a] | > 10 µM | > 100 µM | > 10 µM | > 100 µM | > 100 µM | –
C[C@@]1(F)[C@H](O)[C@@H](CO)O[C@@H]1n1cc(F)c2c(N)ncnc21 [Compound 4b] | > 10 µM | > 100 µM | – | > 100 µM | – | –
C[C@@]1(F)[C@H](O)[C@@H](CO)O[C@@H]1n1cc(Cl)c2c(N)ncnc21 [Compound 4c] | > 10 µM | – | > 10 µM | – | – | –
C[C@@]1(F)[C@H](O)[C@@H](CO)O[C@@H]1n1cc(Br)c2c(N)ncnc21 [Compound 4d] | > 10 µM | > 100 µM | – | – | – | –
C[C@@]1(F)[C@H](O)[C@@H](CO)O[C@@H]1n1ccc2c(N)nc(N)nc21 [Compound 4f] | > 10 µM | – | > 10 µM | > 100 µM | > 100 µM | –
C[C@@]1(F)[C@H](O)[C@@H](CO)O[C@@H]1n1cc(I)c2c(N)nc(N)nc21 [Compound 4g] | > 10 µM | – | > 10 µM | – | – | –
CNc1ncnc2c1c(F)cn2[C@H]1O[C@H](CO)[C@@H](O)[C@@]1(C)F [Compound 4h] | > 10 µM | > 100 µM | > 10 µM | > 100 µM | > 100 µM | –
COc1ncnc2c1ccn2[C@H]1O[C@H](CO)[C@@H](O)[C@@]1(C)F [Compound 4i] | > 10 µM | – | – | > 100 µM | > 100 µM | –
C[C@@]1(F)[C@H](O)[C@@H](CO)O[C@H]1n1ccc2c(N)ncnc21 [Compound 5a] | – | – | – | > 100 µM | > 100 µM | –
C[C@@]1(F)[C@H](O)[C@@H](CO)O[C@H]1n1cc(F)c2c(N)ncnc21 [Compound 5b] | – | – | > 10 µM | > 100 µM | – | –
C[C@@]1(F)[C@H](O)[C@@H](CO)O[C@H]1n1cc(Cl)c2c(N)ncnc21 [Compound 5c] | – | > 100 µM | – | – | – | –
C[C@@]1(F)[C@H](O)[C@@H](CO)O[C@H]1n1ccc2c(N)nc(N)nc21 [Compound 5f] | – | > 100 µM | – | > 100 µM | > 100 µM | deamination to 7-deazaguanosine nucleoside or nucleoside phosphate (Huh-7 cells): no deamination had occurred; nucleoside triphosphate found intracellularly (Huh-7 cells): only a trace amount of nucleoside triphosphate was found
C[C@@]1(F)[C@H](O)[C@@H](CO)O[C@H]1n1cc(I)c2c(N)nc(N)nc21 [Compound 5g] | – | > 100 µM | – | – | – | –
CNc1ncnc2c1c(F)cn2[C@@H]1O[C@H](CO)[C@@H](O)[C@@]1(C)F [Compound 5h] | – | – | – | > 100 µM | > 100 µM | –
COc1ncnc2c1ccn2[C@@H]1O[C@H](CO)[C@@H](O)[C@@]1(C)F [Compound 5i] | – | – | > 10 µM | > 100 µM | > 100 µM | –
C=Cc1cn([C@H]2O[C@H](CO)[C@@H](O)[C@@]2(C)F)c2ncnc(N)c12 [Compound 6] | – | – | – | – | – | anti-HCV activity (in words) (HCV replicon; HCV replicon): moderate anti-HCV activity; anti-HIV-1 activity (in words) (HIV-1): anti-HIV-1 activity; toxicity (in words) [1]: strong toxicity across all cell lines
C=Cc1cn([C@@H]2O[C@H](CO)[C@@H](O)[C@@]2(C)F)c2ncnc(N)c12 [Compound 7] | – | – | – | – | – | anti-HIV-1 activity (in words) (HIV-1): anti-HIV-1 activity; toxicity (in words) [1]: exhibited toxicity in the ribosomal RNA assay and in three independent cell lines
CCc1cn([C@H]2O[C@H](CO)[C@@H](O)[C@@]2(C)F)c2ncnc(N)c12 [Compound 8] | – | > 100 µM | – | – | > 100 µM | –
CCc1cn([C@@H]2O[C@H](CO)[C@@H](O)[C@@]2(C)F)c2ncnc(N)c12 [Compound 9] | > 10 µM | – | > 10 µM | – | > 100 µM | –
COC(=O)/C=C/c1cn([C@H]2O[C@H](CO)[C@@H](O)[C@@]2(C)F)c2ncnc(N)c12 [Compound 10] | > 10 µM | – | – | > 100 µM | > 100 µM | anti-HIV-1 activity (in words) (HIV-1): strong anti-HIV-1 activity; anti-HBV activity (in words) (wild-type HBV): no anti-HBV activity; concentration up to which no cytotoxicity was observed ([1]; four different cell lines): > 100 µM
COC(=O)/C=C/c1cn([C@@H]2O[C@H](CO)[C@@H](O)[C@@]2(C)F)c2ncnc(N)c12 [Compound 11] | – | – | > 10 µM | > 100 µM | > 100 µM | –
C#Cc1cn([C@H]2O[C@H](CO)[C@@H](O)[C@@]2(C)F)c2ncnc(N)c12 [Compound 12] | – | > 100 µM | – | – | > 100 µM | –
C#Cc1cn([C@@H]2O[C@H](CO)[C@@H](O)[C@@]2(C)F)c2ncnc(N)c12 [Compound 13] | > 10 µM | – | > 10 µM | – | > 100 µM | –
C#Cc1cn([C@H]2O[C@H](CO)[C@@H](O)[C@@]2(C)F)c2nc(N)nc(N)c12 [Compound 14] | – | – | – | – | – | anti-HIV-1 activity (in words) (HIV-1): anti-HIV-1 activity; anti-HBV activity (in words) (wild-type HBV): no anti-HBV activity
C#Cc1cn([C@@H]2O[C@H](CO)[C@@H](O)[C@@]2(C)F)c2nc(N)nc(N)c12 [Compound 15] | > 10 µM | – | > 10 µM | – | – | –
C[C@@]1(F)[C@H](O)[C@@H](CO)O[C@@H]1n1cc(C#Cc2ccccc2)c2c(N)ncnc21 [Compound 16] | – | – | – | – | – | anti-HIV-1 activity (in words) (HIV-1): anti-HIV-1 activity; anti-HBV activity (in words) (wild-type HBV): no anti-HBV activity
C[C@@]1(F)[C@H](O)[C@@H](CO)O[C@H]1n1cc(C#Cc2ccccc2)c2c(N)ncnc21 [Compound 17] | > 10 µM | – | – | – | – | anti-HIV-1 activity (in words) (HIV-1): anti-HIV-1 activity; anti-HBV activity (in words) (wild-type HBV): weak anti-HBV activity; toxicity to HepG2 cells (in words) (HepG2 cells): toxicity to HepG2 cells
CCOC(=O)[C@H](C)NP(=O)(OC[C@H]1O[C@@H](n2ccc3c(N)nc(N)nc32)[C@](C)(F)[C@@H]1O)Oc1ccccc1 (some centres unmarked) [Compound 20] | – | – | – | – | – | deamination to 7-deazaguanosine nucleoside or nucleoside phosphate (Huh-7 cells): no deamination had occurred; nucleoside triphosphate found intracellularly (Huh-7 cells): only a trace amount of nucleoside triphosphate was found
